A word on the ED50: it is the midpoint of the dose-response relation.

Structures are written as SMILES. Marks after values point to notes of the source that are not given here.

Experiment [1] has as its system male mice (ICR). The experiment in a line: Muscle relaxation: residence time on rotarod rotating at fixed speed (15 r.p.m.). The format is in vivo. To be noted: Mus musculus, ip, read-out: MR test ED50, II = Fixed 15 r.p.m. Rotarod. Background: The rotarod test checks motor coordination on a turning rod.
Experiment [2] has as its system male mice (ICR). Kind of experiment: Muscle relaxation: grip strength. The format is in vivo. To be noted: intraperitoneal; for ED50: Mus musculus, ip, at time of maximum effect, 50% of activity vs vehicle only, read-out: MR test ED50, III = Grip strength. How it is done:
(§1) For testing, male mice (ICR) were purchased from ORIENT BIO INC. (Korea), divided into several groups with 6 mice in each group, and were adapted for 4-5 days. The mice having the weight ranging from 19 g to 26 g were employed for the test. The pharmacological effect of the test compounds on muscle relaxation was evaluated by Rotarod test, grip strength test, and muscular force (wire hang) test. All mice were adapted to the test environment at one hour before starting the tests. The pharmacological effects of all the test compounds were evaluated by administration through peritoneal cavity of the mice (10 ul/g, bw).
A grip strength test using the test animals' forelimbs was performed using an instrument equipped with triangle ring and designed so as to easily grip with the forelimbs of experimental animals, manufactured from Ugo Basile Inc. (Ugo Basile, Model47106, Italy). The test was conducted before and after administration of the compounds to evaluate the effects thereof. […] The mouse was made to grip the rod with its forelimbs, and its tail was pulled, where the force at which the mouse detached from the rod was recorded. The instrument indicated the force in grams. All of the mice were given […] for test, and the 3 highest values among the test opportunities were selected and the mean value was used as the test result. This experimentation was conducted according to the method described in the reference, ‘Nevins et al. (1993) Quantitative grip strength assessment as a means of evaluating muscle relaxation in mice. Psychopharmacol. 110: 92-96’.
(§2) The results of muscle relaxation activity of the phenyl carbamate compounds measured in above Experimental Examples 11.2 to 11.5 are shown in following Table 5.

The test system of experiment [3] is male ICR mice. Kind of experiment: MES (Maximal Electroshock Seizure) test in mice. The note with it: Mus musculus, po; for ED50: read-out: MES test (po) ED50; for responders at 200 mg/kg: read-out: MES test (po) Protection %.
In experiment [4] the test system is male mice (ICR). The experiment in a line: Muscle relaxation: endurance time on rotarod rotating at accelerated speed. The format is in vivo. The note with it: Mus musculus, ip; intraperitoneal, at time of maximum effect; 50% of activity vs vehicle only; read-out: MR test ED50, I = Acc. Rotarod. How it is done:
as §1
At 24 hours before testing, the mice to be tested were preliminarily trained for 5 minutes on a rod rotating at the rate of 6 revolutions per a minute. The pharmacological effect on muscle relaxation of the test compounds were evaluated by observing the mice on a rod for 5 minutes, where the rod was accelerated from 4 to 40 revolutions per a minute during the test time. The endurance time that each mouse endures on the acceleratedly rotated rod without falling off from the rod was recorded. As test time for evaluation, a maximum of 5 minutes was applied. […] This experimentation was conducted according to the method described in the reference, ‘Monville et al. (2006) Comparison of incremental and accelerating protocol of the rotarod test for the assessment of motor deficits in the 6-OHDA model. J. Neurosci. Meth. 158: 219-223’.
as §2

Experiment [5] relates to male mice (ICR). The experiment in a line: Muscle relaxation: wire hang. Format: in vivo. To be noted: intraperitoneal; for ED50: Mus musculus, at time of maximum effect, 50% of activity vs vehicle only, read-out: MR test ED50, IV = Wire hang; for IV = Wire hang, effect (%) compared to control treated with vehicle only: concentration administered 100 mg/kg. How it is done:
as §1
This experimentation was conducted using a metal wire of 30 cm in length, which was suspended between two pillars at a height of about 40 cm from the bottom covered with a soft pad. […] Each mouse was made to grip the wire using two forelimbs, and the elapse time before the mouse fell off from the wire to the pad on the bottom was recorded in seconds. Each mouse was given 5 opportunities for this test at an interval of 2 minutes period. The highest 3 records among the test opportunities were selected and the mean value was used as the test result. This experimentation was conducted according to the method described in the reference, ‘Jacqueline N. Crawley (1999) Behavioral phenotyping of transgenic and knockout mice: experimental design and evaluation of general health, sensory functions, motor abilities, and specific behavioral tests. Brain Res. 835: 18-26’.
as §2

Where [6] appears, read: intraperitoneal, at time of maximum effect, 50% of activity vs vehicle only.

On to `CC(OC(N)=O)C(O)c1ccccc1Cl` (racemic) [Compound 3, 1-(2-chlorophenyl)-1-hydroxypropyl-2-carbamate], for which the ED50 was found to be 47.7 mg/kg in experiment [1] (setting [6]); 72.6 mg/kg in experiment [2]; 31.4 mg/kg in experiment [3]; 57.1 mg/kg in experiment [4]; 34 mg/kg in experiment [5].
Regarding `CCC(OC(N)=O)C(O)c1ccccc1Cl` (racemic) [Compound 8, 1-(2-chlorophenyl)-1-hydroxybutyl-2-carbamate], the ED50 in experiment [2] stood at 69.5 mg/kg; in experiment [4], 50.6 mg/kg.
For `CC(C)C(OC(N)=O)C(O)c1ccccc1Cl` (racemic) [Compound 11, 1-(2-chlorophenyl)-1-hydroxy-3-methyl-butyl-2-carbamate], the results for the ED50 in experiment [2] and in experiment [4] were 126 mg/kg and 102 mg/kg, respectively.
With `CNC(=O)OC(C)C(O)c1ccccc1Cl` (racemic) [Compound 29, 1-(2-chlorophenyl)-1-hydroxypropyl-2-N-methylcarbamate], the ED50 in experiment [1] (setting [6]) was 41 mg/kg; in experiment [2], 46 mg/kg; in experiment [4], 30.2 mg/kg; in experiment [5] it was 38 mg/kg. Moreover, the responders at 200 mg/kg in experiment [3] came out at 75%.
For the molecule `CCCNC(=O)OC(C)C(O)c1ccccc1Cl` (racemic) [Compound 30, 1-(2-chlorophenyl)-1-hydroxypropyl-2-N-propylcarbamate], the ED50 in experiment [2] turned out to be 65.4 mg/kg; in experiment [5], 31.7 mg/kg. The responders at 200 mg/kg in experiment [3] turned out to be 25%.
Consider `CC(C)NC(=O)OC(C)C(O)c1ccccc1Cl` (racemic) [Compound 31, 1-(2-chlorophenyl)-1-hydroxypropyl-2-N-isopropylcarbamate], for which the ED50 in experiment [2] is 50.4 mg/kg; in experiment [5], 52.1 mg/kg. Moreover, in experiment [3], the responders at 200 mg/kg came to 25%.
As to `CC(OC(=O)NC1CC1)C(O)c1ccccc1Cl` (racemic) [Compound 32, 1-(2-chlorophenyl)-1-hydroxypropyl-2-N-cyclopropylcarbamate], the figures for the ED50 in experiment [2] and in experiment [5] were 45.2 mg/kg and 36.6 mg/kg, respectively. In addition, the responders at 200 mg/kg in experiment [3] is 100%.
For the molecule `CC(OC(=O)NC1CCCCC1)C(O)c1ccccc1Cl` (racemic) [Compound 33, 1-(2-chlorophenyl)-1-hydroxypropyl-2-N-cyclohexylcarbamate], in experiment [5], the ED50 stood at 74.6 mg/kg.
For the molecule `C[C@@H](OC(=O)NC1CC1)[C@H](O)c1ccccc1Cl` (single isomer, unassigned) [Compound 25], the ED50 was determined as 18.3 mg/kg in experiment [1] (setting [6]), 46.1 mg/kg in experiment [2], 30 mg/kg in experiment [4] and 32.9 mg/kg in experiment [5]. For the same molecule, in experiment [3], the responders at 200 mg/kg was 25%.
Consider `C[C@@H](OC(N)=O)[C@H](O)c1ccccc1Cl` [Compound 2, 1-(2-chlorophenyl)-(R)-1-hydroxypropyl-(R)-2-carbamate], for which the ED50 in experiment [1] (setting [6]) was 76.5 mg/kg; in experiment [2] it was 110 mg/kg; in experiment [3] it was 51 mg/kg; in experiment [4], 66.3 mg/kg; in experiment [5], 43.3 mg/kg.
`C[C@@H](OC(N)=O)[C@@H](O)c1ccccc1Cl` [Compound 4, 1-(2-chlorophenyl)-(S)-1-hydroxypropyl-(R)-2-carbamate]: the ED50 worked out at 65 mg/kg in experiment [1] (setting [6]); 124 mg/kg in experiment [2]; 82.4 mg/kg in experiment [3]; 69.3 mg/kg in experiment [4]; 40 mg/kg in experiment [5].
Regarding `CC[C@H](OC(N)=O)[C@@H](O)c1ccccc1Cl` [Compound 6, 1-(2-chlorophenyl)-(S)-1-hydroxybutyl-(S)-2-carbamate], the ED50 in experiment [2] was 70.7 mg/kg.
Same read-out and setting: the figure for `CC[C@@H](OC(N)=O)[C@H](O)c1ccccc1Cl` [Compound 7, 1-(2-chlorophenyl)-(R)-1-hydroxybtyl-(R)-2-carbamate] is 248 mg/kg; for `CC(C)[C@H](OC(N)=O)[C@@H](O)c1ccccc1Cl` [Compound 9, 1-(2-chlorophenyl)-(S)-1-hydroxy-3-methyl-butyl-(S)-2-carbamate] it is 104 mg/kg.
For the molecule `CC(C)NC(=O)O[C@@H](C)[C@@H](O)c1ccccc1Cl` [Compound 17, 1-(2-chlorophenyl)-(S)-1-hydroxypropyl-(R)-2-N-isopropylcarbamate], the ED50 in experiment [1] (setting [6]) was 66.4 mg/kg; in experiment [2], 91.5 mg/kg; in experiment [4], 73.1 mg/kg; in experiment [5], 41.4 mg/kg.
Regarding `C[C@H](OC(=O)NC1CCCCC1)[C@@H](O)c1ccccc1Cl` [Compound 19, 1-(2-chlorophenyl)-(S)-1-hydroxypropyl-(R)-2-N-cyclohexyl carbamate], the ED50 was 110 mg/kg in experiment [2], 95.3 mg/kg in experiment [4] and 28.5 mg/kg in experiment [5].
For the molecule `CNC(=O)O[C@H](C)[C@H](O)c1ccccc1Cl` [Compound 22, 1-(2-chlorophenyl)-(R)-1-hydroxypropyl-(R)-2-N-methylcarbamate], the ED50 in experiment [1] (setting [6]) stood at 25.1 mg/kg; in experiment [2], 28.3 mg/kg; in experiment [4], 25.7 mg/kg; in experiment [5], 22.4 mg/kg.
On to `CCCNC(=O)O[C@H](C)[C@H](O)c1ccccc1Cl` [Compound 23, 1-(2-chlorophenyl)-(R)-1-hydroxypropyl-(R)-2-N-propylcarbamate], for which the ED50 in experiment [2] was found to be 73.8 mg/kg; in experiment [5], 46 mg/kg. Also, the responders at 200 mg/kg in experiment [3] amounted to 25%.
As for `CC(C)NC(=O)O[C@H](C)[C@H](O)c1ccccc1Cl` [Compound 24, 1-(2-chlorophenyl)-(R)-1-hydroxypropyl-(R)-2-N-isopropylcarbamate], the ED50 in experiment [1] (setting [6]) was found to be 44.3 mg/kg; in experiment [2], 48.8 mg/kg; in experiment [4], 38.6 mg/kg; in experiment [5] it was 17.8 mg/kg.
On to `C[C@@H](OC(=O)NC1CCCCC1)[C@H](O)c1ccccc1Cl` [Compound 26, 1-(2-chlorophenyl)-(R)-1-hydroxypropyl-(R)-2-N-cyclohexyl carbamate], for which, in experiment [5], the ED50 amounted to 63.8 mg/kg.
For `C[C@@H](OC(N)=O)[C@H](O)c1ccc(Cl)cc1Cl` [Compound 45, 1-(2,4-dichlorophenyl)-(R)-1-hydroxypropyl-(R)-2-carbamate], in experiment [3], the responders at 200 mg/kg was found to be 0%.
Take `C[C@H](OC(N)=O)[C@@H](O)c1ccccc1F` [Compound 63, 1-(2-fluorophenyl)-(S)-1-hydroxypropyl-(S)-2-carbamate]: the ED50 in experiment [2] came to 118 mg/kg. Besides, in experiment [5], the “IV = Wire hang, effect (%) compared to control treated with vehicle only” value is 100^a (84.2%).
With `C[C@@H](OC(N)=O)[C@H](O)c1ccccc1F` [Compound 64, 1-(2-fluorophenyl)-(R)-1-hydroxypropyl-(R)-2-carbamate], in experiment [2] (concentration administered 120 mg/kg), the “III = Grip strength, effect (%) compared to control treated with vehicle only” value is on record as 120^a (35.4%). In addition, in experiment [5], the “IV = Wire hang, effect (%) compared to control treated with vehicle only” value is 100^a (30.8%).
With `C[C@H](OC(N)=O)[C@@H](O)c1ccccc1I` [Compound 65, 1-(2-iodophenyl)-(S)-1-hydroxypropyl-(S)-2-carbamate], the results for the ED50 in experiment [1], in experiment [2] and in experiment [5] were 28 mg/kg, 42.9 mg/kg and 23.4 mg/kg, respectively.
Take `C[C@@H](OC(N)=O)[C@H](O)c1ccccc1I` [Compound 66, 1-(2-iodophenyl)-(R)-1-hydroxypropyl-(R)-2-carbamate]: the ED50 stood at 67.9 mg/kg in experiment [1], 46 mg/kg in experiment [2] and 76.3 mg/kg in experiment [5].
For `CC[C@H](OC(N)=O)[C@@H](O)c1ccccc1I` [Compound 67, 1-(2-iodophenyl)-(S)-1-hydroxybutyl-(S)-2-carbamate], in that order: 30.2 mg/kg, 69.1 mg/kg and 26.2 mg/kg.

These data come from patent US20130184338A1, “PHENYLPROPYL CARBAMATE DERIVATIVES FOR USE IN PREVENTING OR TREATING MULTIPLE SCLEROSIS” (Bio-Pharm Solutions Co., Ltd., priority 2011, published 2013).
